One data set has as its system caspase-3, -6 and -8. Description: Caspase cleavage activity of cell extracts, statements covering DEVD, VEID and IETD peptides together. The data set is classed as cell-based, human. To be noted: for protease activity on DEVD, VEID and IETD peptides, single treatment: FIG. 7: verteporfin 5 ng/ml with light, FasL 7.5 ng/ml or TRAIL 20 ng/ml alone. Here is the method:
(§1) The human Jurkat T cell line containing a neomycin resistance gene was obtained from Dr. Charles Rudin (University of Chicago). Cells were maintained in RPMI 1640 medium containing 10% heat-inactivated fetal calf serum (FCS) with penicillin (100 U/mL), streptomycin (100 μg/mL), 20 mM HEPES, 2 mM L-glutamine and G418 (1 μg/ml) purchased from Gibco BRL (Burlington, Ontario) in a CO2 incubator at 37° C. To elicit apoptosis with PDT, Jurkat cells were incubated with different amounts of liposomally formulated benzoporphyrin derivative monoacid ring A (BPD-MA, verteporfin, QLT PhotoTherapeutics, Inc., Vancouver, Canada) for one hour at 37° C. under light-protected conditions. The culture medium used for experiments was identical to that used for the passage of the cells except that FCS was used at a concentration of 5%. Experiments were conducted either in 6-well culture plates at 5×10^6 cells in a volume of 4 ml per well or in 96-well microtiter plates at 1×10^5 cells per well at 0.2 ml per well. Cells were irradiated with light of a wavelength of 690 nm delivered at 65-73 mW/sec from light emitting diodes (LED) to achieve a total light dose of 5 J/cm^2. Cells were returned to the incubator until required for analysis.
(§2) FasL and TRAIL as used were recombinant preparations. FasL was obtained from Upstate Biotechnology (Lake Placid NY) and corresponded to amino acids 103-281 of the soluble domain of human FasL. TRAIL was obtained from BIOMOL Research Laboratories (Plymouth Meeting, Pa.) and corresponded to residues 114-281 of the soluble domain of human TRAIL. FasL and TRAIL were usually added immediately following the treatment of cells with PDT, although in one series of experiments these factors were added at 1, 2 or 3 hours post-irradiation.
Whole cell lysates were prepared by washing 1×10^7 cells per sample twice with ice-cold PBS. Cells were disrupted with 1 mL of lysis buffer [1% Nonidet P-40 detergent (NP-40), 20 mM Tris-HCl, pH 8.0, 137 mM NaCl, 10% glycerol, 1 mM phenylmethylsulfonyl fluoride (PMSF) aprotinln (0.15 U/mL) and 1 mM sodium orthovanadate] for 20 minutes on ice. Lysates were centrifuged for 10 minutes at 15,800×g at 4° C.
These sequences are denoted by letter codes for each amino acid. To evaluate relative DEVDase (caspases 3 and 7), VEIDase (caspase 6) and IETDase (caspase 8) cleavage activity, Jurkat cell lysates were incubated with caspase-specific fluorescent substrates as described by Granville et al. (“Photodynamic therapy induces caspase-3 activation in HL-60 cells”, Cell Death Differ., 4, 623-629 (1997)). Briefly, lysates were incubated with reaction buffer (20 mM Tris pH 7.5, 137 mM NaCl, 1% NP-40, 10% glycerol) containing 100 μM of the caspase substrates Ac-DEVD-AMC (Calbiochem, Cambridge, Mass.), Ac-VEID-AMC (Calbiochem, Cambridge, Mass.), Ac-lETD-AMC (BIOMOL, Plymouth Meeting Pa.), and Ac-LEHD-AMC (Calbiochem, Cambridge, Mass.). The letter codes for the amino acid residues present within the inhibitor peptides are as following: D=aspartic acid; E=glutamic acid; H=histidine; I=isoleucine; T=threonine; V=valine. The reaction mixture was incubated at 37° C. for 1 (DEVD.AMC) or 24 (VEID.AMC and IETH.AMC) h and fluorescence was measured using an excitation at 380 nm and an emission wavelength of 460 nm with a CytoFluor™ 2350 fluorescent measuring system (Perseptive Biosystems, Burlington, Ont).

Another data set has as its system Jurkat T cells. As to the kind of experiment: DNA fragmentation (sub-diploid DNA) by PI staining and flow cytometry. The data set is classed as cell-based, human. To be noted: for cells exhibiting DNA fragmentation (sub-diploid DNA levels): 690 nm light 5 J/cm^2, analysis 24 hours later. Here is the method:
as §1, §2
The proportion of cells containing sub-diploid levels of DNA 24 hours following treatment was determined using a propidium iodide (“PI”) fluorescence analysis procedure as described by Telford et al. (“Rapid Quantitation of Apoptosis in Pure and Heterogeneous Cell Populations Using Flow Cytometry” J. Immunol Methods 172:1-6 (1994)) or by Darzynkieicz et al. (“Features of Apoptotic Cells Measured by Flow Cytometry”, Cytometry, 13:795-808 (1992)).
Twenty four hours following PDT, 5×10^5 cells were washed twice with ice-cold PBS and then permeablized and fixed in 80% ethanol at 4° C. for one hour. The cells were again washed in ice-cold PBS and stained with PI (50 μg/mL) in PBS with simultaneous deoxyribose nuclease-free ribonuclease A (5 U/mL) treatment. These samples were analyzed by flow cytometry. The percentage of apoptotic cells was calculated using single color analysis for PI fluorescence with a Coulter XL flow cytometer (Coulter Electronics, Inc., Hialeah, Fla.). […] The degree of separation between the apoptotic population and the G0/G1 peak is readily apparent and the percentage of apoptotic cells is determined from the subsequent histogram.
For orientation: Flow cytometry measures light scatter and fluorescence of single cells or particles in a stream.

Entries after “also recorded” stand apart in the source; their conditions may differ.

These results are taken from patent US20030008857A1, “Photodynamic therapy (PDT) in combination with factors that bind cell surface apoptosis-inducing receptors” (priority 1999, published 2003).

With “TRAIL: recombinant, residues 114-281 of the soluble domain of human TRAIL (BIOMOL)”, the “caspase activity compared with the treatments given independently” value in the data set on caspase-3, -6 and -8 (FIG. 7: factor combined with PDT (verteporfin 5 ng/ml, 5 J/cm^2), 3 hours) was “higher caspase activity”. The “protease activity on DEVD, VEID and IETD peptides, single treatment” value in the data set with caspase-3, -6 and -8 (3 hours) was “modestly increased”. Further, the “caspase activity compared with PDT or TRAIL applied independently” value in the data set with caspase-3, -6 and -8 (TRAIL 20 ng/ml plus PDT, each verteporfin concentration, 3 hours) was “higher”. Besides, the “protease activity compared with FasL or TRAIL alone” value in the data set on caspase-3, -6 and -8 (factor plus verteporfin in the absence of light irradiation) was “no different”. Also, in the data set on Jurkat T cells (TRAIL 20 ng/ml added after PDT with verteporfin 2 ng/ml, 5 J/cm^2, 24 hours), the “increase in proportion of cells with sub-diploid DNA versus light-treated control cells” value is “approximately eight-fold”. In the data set with Jurkat T cells (TRAIL 20 ng/ml by itself, 24 hours (FIG. 2)), the “increase in the number of cells displaying DNA fragmentation” value was “two-fold”. Further, the “proportion of cells with sub-diploid DNA compared with PDT alone” value in the data set with Jurkat T cells (TRAIL 20 ng/ml or FasL 7.5 ng/ml added after PDT with verteporfin 0.5 and 1 ng/ml) is given as “a greater proportion of cells contained a sub-diploid level of DNA”. In addition, the “nature of the combined effect on DNA fragmentation” value in the data set with Jurkat T cells (TRAIL 20 ng/ml with PDT (verteporfin 2 ng/ml) versus each alone) is reported as “greater than additive”. Moreover, in the data set on Jurkat T cells (TRAIL 1000 ng/ml, within 24 hours), the “cells with induced DNA fragmentation” value is recorded as “approximately 60%”. For the same substance, in the data set with Jurkat T cells (added at 5 minutes, 1, 2 or 3 hours, FasL 7.5 ng/ml, TRAIL 20 ng/ml, individually or in combination), the “DNA fragmentation induced by the factor without PDT across addition times” value is recorded as “a comparable level of DNA fragmentation”. In addition, in the data set with Jurkat T cells (factor added at 3 hours post-PDT (verteporfin 2 ng/ml)), the “change of the combined effect with PDT on DNA fragmentation” value is recorded as “a modest decline”. In the data set on Jurkat T cells (factor added up to 3 hours after PDT (verteporfin 2 ng/ml), FasL 7.5 ng/ml, TRAIL 20 ng/ml), the “capacity to accentuate PDT-mediated apoptosis (DNA fragmentation)” value was “still demonstrable”.
For the substance “benzoporphyrin derivative monoacid ring A [verteporfin, reference compound]”, the “protease activity on DEVD, VEID and IETD peptides, single treatment” value in the data set on caspase-3, -6 and -8 (3 hours) is “modestly increased”. In addition, the “verteporfin concentration at which the effect of PDT on caspase activity was greatest” value in the data set on caspase-3, -6 and -8 (light 5 J/cm^2, extracts 3 hours post-PDT) worked out at 5 ng/mL. Besides, the “effect of PDT alone on DEVDase-, VEIDase- and IETDase-like activity” value in the data set on caspase-3, -6 and -8 (verteporfin and light 5 J/cm^2, no FasL or TRAIL, 3 hours post-PDT) is “promoted DEVDase-like, VEIDase-like and IETDase-like activity; also recorded: increased levels of DEVDase-like, VEIDase-like and IETDase-like activity”. In addition, the “cells exhibiting DNA fragmentation relative to cells treated with light alone” value in the data set on Jurkat T cells (verteporfin 2 ng/ml, light 5 J/cm^2, 24 hours) was “Five times”. In addition, the “cells exhibiting DNA fragmentation (sub-diploid DNA levels)” value with Jurkat T cells (verteporfin 5 ng/ml) was “a minor proportion of cells”; in the data set on Jurkat T cells (verteporfin 15 ng/ml) it was “the vast majority of cells”.
